Assay type in all cases: cell-based
One assay has as its system Aβ42. As to the kind of experiment: Aβ-lowering MSD electrochemiluminescent assay of conditioned media from CHO cells expressing human APP (Aβ42). Particulars: MSD electrochemiluminescent assay, hAPP-REPNL751 CHO cells; read-out: Aβ42 EC50 for inhibition of Aβ42. The protocol:
(§1) The activity of compounds in lowering the generation of Aβ40 and Aβ42, the most abundant forms of beta amyloid, from APP (amyloid precursor protein) was measured in an electrochemiluminescent (ECL) assay of conditioned media from chinese hamster ovary (CHO) cells stably expressing the human amyloid precursor protein (APP) reporter construct, hAPP-REPNL751 (Sughir, R. et al.; J. Biolog. Chem (1992) 267: 25602-25608). Aβ peptides were secreted at high levels into cell culture media by cells carrying the human APP transgene; compounds were tested for their capacity to modulate this production. The Aβ peptide in the conditioned medium was quantitated by a sandwich immunoassay with the MSD ECL detection system. Cell metabolism was measured using a 3-(4,5-dimethylthiazol-2-yl)-5-(3-carboxymethoxypheny)-2-(4-sulfophenyl)-2H-tetrazolium, inner salt (MTS) salt kit (which measures the mitochondrial activity of cells by the bioreduction of Owen's reagent). This assay consists of the following protocol:
(§2) 1. hAPP-REPNL751CHO cells were seeded into 96 well plates and incubated until about 60-70% confluence.
(§3) 2. Medium was removed, cells were washed, and fresh serum-free medium (Ultraculture) was put on cells.
(§4) 3. Compounds were diluted and then added to the cell medium.
(§5) 4. Cells were incubated, with compounds, for indicated times.
(§6) 5. Streptavidin coated Meso Scale Discover (MSD) plates (MSD standard MULTI-ARRAY® 96 plate, cat.# P11SA-1) were washed […] with TTBS (Tris-buffered saline, the TWEEN® 20 reagent).
(§7) 6. 20 μL conditioned medium were removed from the cells and added to the TTBS prewashed MSD plates.
(§8) 7. Standard curve dilutions of synthetic Aβ40 and Aβ42 were prepared and added to the MSD plates.
(§9) 8. A reagent mix was prepared in 1% MSD Blocker A (appropriate concentration of biotinylated 6E10 antibody, detection antibodies to Aβ40, Aβ42, and MSD ruthinylated tag antibody).
(§10) 9. 20 μL reagent mix was distributed to sample plate.
(§11) 10. Plates were incubated with shaking overnight at 4° C.
(§12) 11. Plates were washed 3× with TTBS.
(§13) 12. 150 μL read buffer was added per well (MSD® Read Buffer T, cat#R92TC-2, made 1× with distilled water).
(§14) 13. Plates were read in a MSD® plate reader within 2 hours.
(§15) Assays were accepted or rejected based upon specific performance criteria, including regression coefficient of standard curve, adequate signal to noise ratio, sample signals lying within the range of the standard curve, etc.: the specific parameters were established for each tissue type prior to performing an assay, and were included in the full analytical procedure.
(§16) Plate data from both assays (MTS and MSD® ELISA) were transferred into a Microsoft EXCEL® spreadsheet to determine the toxicity, and inhibition caused by the compounds. Standard curves of Aβ were generated using LSW™ toolbar Hill slope model 42, with 1/y weighting (general sigmoidal curve with Hill slope, a to d; y=(a−d)/(1+(x/c)̂b)+d). Inhibition data were expressed as a percent of the average of the Aβ values in the vehicle treated wells (all values are background subtracted), using LSW™ toolbar Hill Slope model 68 (ligand-receptor binding/sigmoidal, with Hill slope and Bmax to 0; y=Bmax*(1−(x̂n/(K̂n+x̂n))), after raw values were translated/transformed into absolute Aβ values utilizing the standard curve generated as described above (e.g. back calculate absolute Aβ values from the raw values utilizing standard curve). Onboard controls to verify assay performance were checked to assure that amyloid is within linear detection range of the assay, that cells were expressing correctly, and that the MSD itself was performing according to quality control (QC) standards.
(§17) % Inhibition>50% may be considered a positive response or an interesting result in this assay; EC50 determination were determined.
(§18) The beta amyloid inhibitory activity of compounds of formula (I) was determined using the MSD ECL assay. Inhibition of Notch processing was measured using the stable transfection reporter assay See, Table 1 below.

A further assay deals with Aβ40. The assay can be described thus: Aβ-lowering MSD electrochemiluminescent assay of conditioned media from CHO cells expressing human APP (Aβ40). The settings on record: MSD electrochemiluminescent assay, hAPP-REPNL751 CHO cells; read-out: Aβ40 EC50 for inhibition of Aβ40. The protocol:
as §1, §2, §3, §4, §5, §6, §7, §8, §9, §10, §11, §12, §13, §14, §15, §16, §17, §18

The test system of a further assay is Notch. As to the kind of experiment: Stable transfection Notch reporter assay (HES1-SEAP, P8H6 CHO-K1 cells). Particulars: stable transfection Notch reporter assay, 48 hours, read-out: Notch EC50 for inhibition of Notch.
Excerpt: A concern with compounds that lower beta amyloid synthesis by targeting the γ-secretase enzyme is that this enzyme also is involved in the cleavage of other substrates besides APP especially the Notch substrate. […] Thus, a selectivity of APP cleavage over Notch cleavage is desired in order to avoid G.I. side effects. The activity of compounds in cleaving Notch can be measured in a whole cell functional Notch assay. This is an assay to determine the effects of compounds on the S3 (γ-secretase like) processing of Notch. […] SEAP transactivation is then detected by luminescent assay. The assay consists of the following protocol:
• (i) Materials: The P8H6 inducible stable cell line was derived from T-REX™ CHO-K1, stably expressing Tet repressor, Notch (pZX1) and HES1-SEAP (pZX2) reporter constructs. A Wallac 1450 Victor™ Luminescence Counter was used to measure luminescent signal. All other materials and reagents were of highest quality available and were all from commercial sources.
(ii) Construct Description: • pZX1: Mouse Notch1 with deleted extracellular domain cloned at Hind III/Xho I sites of pcDNA5/TO vector: Ampicillin Resistance for bacteria, hygromycin resistance for cells. • pZX2: Mouse HES1 promoter together with reporter gene SEAP cloned at Not I/Apa I sites of pcDNA3.1 with deletion of CMV promoter.
(iii) Procedure: • 1. P8H6 cells were grown in Ham's F12 complete growth media containing 10% FBS (reduced tetracycline), 2 mM of L-glutamine, 1 mg/mL of hygromycin, 1 mg/mL of the GENETICIN® antibiotic, 10 μg/mL of Blasticidin and 1% Penicillin-Streptomycin were supplemented with doxycline with final induction concentration of 0.2 μg/mL. The cells were seeded in 96-well tissue culture plate at 8000/well. • 2. Test compounds in 0.2% DMSO/25 mM HEPES buffer were diluted at final working concentration of 20 μM, 6.7 μM, 2.2 μM, 741 nM, 247 nM, 82 nM, 27 nM, 9 nM and 3 nM. Diluted compounds then were added to P8H6 cells in 96-well tissue culture plates. For vehicle samples, the same volume of 0.2% DMSO/25 mM HEPES buffer was added. • 3. Cells were incubated at 37° C., 5% CO2 for 48 hours. • 4. SEAP levels in the conditioned media were assessed using the Clontech GREATESCAPE™ SEAP Chemiluminescence detection kit according to the manufacturer's instruction. Briefly, 15 μL of conditioned media were mixed with 45 μL of the dilution buffer and incubated at 65° C. for 45 minutes. After cooling, assay buffer was added and the sample was incubated with the CSPD® substrate. • 5. Luminescence was measured in a Wallac 1450 VICTOR™ luminescence counter.
EC50 was the compound concentration that was estimated to provide a 50% reduction of maximum response in Notch induced SEAP levels. An EC50 from a given assay may only be used for averaging if it has met the following criteria: • 1. There is a lower dose in the assay which gives a % Notch Activity>60% (bracketing lower dose). • 2. There is a higher dose in the assay which gives a % Notch Activity<30% (bracketing higher dose), and the maximum inhibition is reached (e.g., a given compound might achieve 80% inhibition (% Notch activity is about 20%) over several doses, and therefore 20% would be considered the maximum inhibition.
Data were analyzed in Microsoft EXCEL® format. EC50 was calculated by LSW using sigmoidal inhibition from B0 to nsb model (model 59). Each assay plate contained a dose response curve for the reference compound 5-chloro-N-[(1S,2R)-2-ethyl-4,4,4-trifluoro-1-(hydroxymethyl)butyl]thiophene-2-sulfonamide. This compound is discussed in International Patent Publication No. WO 2004/092155. The following data is not shown in that publication.
as §18
A general note: Reporter assays use an easily measured gene product as a stand-in for the process of interest.

As a reminder, the EC50 is the midpoint of the concentration-response curve.

Structures are written as SMILES. Like-named read-outs stand apart in the source and are kept apart here.

Consider `O=S(=O)(N[C@@H](CO)[C@@H](c1cc(F)cc(F)c1)C(F)(F)F)c1ccc(Cl)s1.O=S(=O)(N[C@H](CO)[C@H](c1cc(F)cc(F)c1)C(F)(F)F)c1ccc(Cl)s1` (relative stereo) [Example 7, 5-Chloro-N-[(1S*,2S*)-2-(3,5-difluorophenyl)-3,3,3-trifluoro-1-(hydroxymethyl)propyl]thiophene-2-sulfonamide and 5-chloro-N-[(1R*,2R*)-2-(3,5-difluorophenyl)-3,3,3-trifluoro-1-(hydroxymethyl)propyl]thiophene-2-sulfonamide], for which the EC50 in the assay with Aβ42 was 8750 nM; with Aβ40, 7300 nM; in the assay with Notch, over 20000 nM.

As to `O=S(=O)(N[C@H](CO)[C@@H](c1cc(F)cc(F)c1)C(F)(F)F)c1ccc(Cl)s1` (relative stereo) [Example 8, 5-Chloro-N-[(1S*,2R*)-2-(3,5-difluorophenyl)-3,3,3-trifluoro-1-(hydroxymethyl)propyl]thiophene-2-sulfonamide], the EC50 was determined as 80 nM in the assay on Aβ42, 83 nM in the assay on Aβ40 and 2780 nM in the assay on Notch (CHO-K1).

On to `O=S(=O)(N[C@H](CO)[C@@H](c1ccc(F)cc1)C(F)(F)F)c1ccc(Cl)s1` (relative stereo) [Example 9, 5-Chloro-N-[(1S*,2R*)-3,3,3-trifluoro-2-(4-fluorophenyl)-1-(hydroxymethyl)propyl]thiophene-2-sulfonamide], for which the EC50 in the assay with Aβ42 was 178 nM; in the assay on Aβ40, 187 nM; in the assay on Notch (CHO-K1), over 20000 nM.

As for `O=S(=O)(N[C@H](CO)[C@H](c1ccc(F)cc1)C(F)(F)F)c1ccc(Cl)s1` (relative stereo) [Example 10, 5-Chloro-N-[(1S*,2S*)-3,3,3-trifluoro-2-(4-fluorophenyl)-1-(hydroxymethyl)propyl]thiophene-2-sulfonamide], the values for the EC50 in the assay on Aβ42, with Aβ40 and in the assay with Notch (CHO-K1) were 1570 nM, 1880 nM and over 20000 nM, respectively.

Consider `O=S(=O)(N[C@H](CO)[C@H](c1cccc(F)c1)C(F)(F)F)c1ccc(Cl)s1` (relative stereo) [Example 11, 5-Chloro-N-[(1S*,2S*)-3,3,3-trifluoro-2-(3-fluorophenyl)-1-(hydroxymethyl)propyl]thiophene-2-sulfonamide], for which the EC50 with Aβ42 is 3380 nM; with Aβ40, 4060 nM; with Notch (CHO-K1) it was over 20000 nM.

Consider `O=S(=O)(N[C@H](CO)[C@@H](c1cccc(F)c1)C(F)(F)F)c1ccc(Cl)s1` (relative stereo) [Example 12, 5-Chloro-N-[(1S*,2R*)-3,3,3-trifluoro-2-(3-fluorophenyl)-1-(hydroxymethyl)propyl]thiophene-2-sulfonamide], for which the EC50 worked out at 98 nM in the assay with Aβ42, 98 nM in the assay with Aβ40 and 1740 nM with Notch (CHO-K1).

`O=S(=O)(N[C@H](CO)[C@@H](c1ccc(Cl)cc1)C(F)(F)F)c1ccc(Cl)s1` (relative stereo) [Example 13, 5-Chloro-N-[(1S*,2R*)-2-(4-chlorophenyl)-3,3,3-trifluoro-1-(hydroxymethyl)propyl]thiophene-2-sulfonamide]: the EC50 with Aβ42 was determined as 396 nM; in the assay with Aβ40 it was 316 nM; with Notch (CHO-K1) it was 7600 nM.

In the case of `O=S(=O)(N[C@H](CO)[C@H](c1ccc(Cl)cc1)C(F)(F)F)c1ccc(Cl)s1` (relative stereo) [Example 14, 5-Chloro-N-[(1S*,2S*)-2-(4-chlorophenyl)-3,3,3-trifluoro-1-(hydroxymethyl)propyl]thiophene-2-sulfonamide], the values for the EC50 with Aβ42, in the assay with Aβ40 and in the assay with Notch (CHO-K1) were 2280 nM, 2360 nM and over 20000 nM, respectively.

For the compound `O=S(=O)(N[C@@H](CO)[C@@H](c1ccccc1)C(F)(F)F)c1ccc(Cl)s1` (stereo in doubt) [Example 2, 5-Chloro-N-[(1R* ,2R*)-3,3,3-trifluoro-1-(hydroxymethyl)-2-phenylpropyl]thiophene-2-sulfonamide], the concentration giving a half-maximal response (EC50) in the assay on Aβ42 and in the assay with Aβ40 was over 15000 nM each time.

Regarding `O=S(=O)(N[C@H](CO)[C@H](c1ccccc1)C(F)(F)F)c1ccc(Cl)s1` (stereo in doubt) [Example 5, 5-Chloro-N-[(1S*,2S*)-3,3,3-trifluoro-1-hydroxymethyl-2-phenylpropyl]thiophene-2-sulfonamide], the EC50 in the assay on Aβ42 was 7200 nM; in the assay with Aβ40, 7520 nM; with Notch (CHO-K1), over 20000 nM.

For `O=S(=O)(N[C@@H](CO)[C@H](c1ccccc1)C(F)(F)F)c1ccc(Cl)s1` [Example 3, 5-Chloro-N-[(1R,2S)-3,3,3-trifluoro-1-(hydroxymethyl)-2-phenylpropyl]thiophene-2-sulfonamide], the EC50 in the assay with Aβ42 and in the assay with Aβ40 was over 15000 nM each time.
